From US11999732B2, “P2X3 receptor antagonists” (RECORDATI INDUSTRIA CHIMICA E FARMACEUTICA SPA, priority 2018, dated 2024)
Read-outs that look alike come from different tables or passages of the source.

Target: T1, human P2X3 receptor (Homo sapiens, UniProt P56373)
T1 construct: expressed in transfected cells; host or cells: CHO-K1
T1 sequence (P56373 1-397): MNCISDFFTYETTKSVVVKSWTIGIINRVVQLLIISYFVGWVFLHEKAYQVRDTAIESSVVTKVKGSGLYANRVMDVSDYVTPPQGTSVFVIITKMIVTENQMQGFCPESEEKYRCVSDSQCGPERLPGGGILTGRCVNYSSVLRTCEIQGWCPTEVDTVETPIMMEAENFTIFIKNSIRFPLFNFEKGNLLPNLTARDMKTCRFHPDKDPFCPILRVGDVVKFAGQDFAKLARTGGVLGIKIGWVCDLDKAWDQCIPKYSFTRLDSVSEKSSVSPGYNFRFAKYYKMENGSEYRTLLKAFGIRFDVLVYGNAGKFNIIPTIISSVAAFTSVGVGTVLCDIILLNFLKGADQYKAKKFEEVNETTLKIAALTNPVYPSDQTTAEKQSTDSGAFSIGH
Test: Calcium luminescence (photoprotein) assay in CHO-K1 cells co-expressing human P2X3 receptor, α,β-Met-ATP stimulation, FLEXSTATION readout
Type: cell-based
Procedure: The assay for the human purinergic P2X3 receptor has been adapted to the internal screening instrumentation using the FLEXSTATION as reader and a photoprotein as luminescent readout. The assay consists of CHO-K1 cells recombinantly co-expressing the human P2rx3 receptor and a Ca^2+ sensitive photoprotein. Cells are maintained in DMEM F-12 (1:1) mixture (LONZA cat. no BE04-687F/U1) supplemented with 9 mL of 100 mM Sodium Pyruvate (LONZA cat. no BE13-115E), 29 mL of 7.5% Sodium Bicarbonate (LONZA cat. no: BE17-613E), 5.5 mL of 1 M Hepes (LONZA cat. no BE17-737E), 5 mL of 100× Penicillin/Streptomycin (LONZA cat. no DE17-602E) and 50 mL of Fetal Bovine Serum (Sigma cat. no F7524), 1 mg/mL G418 (Sigma cat. no G8168) and 5 µg/ml puromycin (Sigma cat. no P9620). Standard propagation conditions consist of seeding in a P75 flask twice a week, recovering about 20×10^6 cells, corresponding to about 80% confluency. Cells were seeded into black-walled clear bottom 96 well plates at a density of 40000 cells/well in a Tyrode's buffer (Standard Tyrode's buffer: in house solution, 130 mM NaCl, 5 mM KCl, 2 mM CaCl2, 5 mM NaHCO3, 1 mM MgCl2, 20 mM HEPES, pH 7.4). After 24 h the culture medium was replaced with 200 μL/well of coelenterazine in Tyrode's buffer (Coelenterazine: from BIOSYNTH (cat. no C-7001). 10 mM stock solution was prepared in DMSO and glutathione and stored at −20° C.). The plates were incubated for 4 hours at 37° C., and injected with 10 μL/well of test compounds at 25× concentration in Tyrode's buffer. After 4 minutes a second injection of 50 μL/well of 5× α,β-Met-ATP in Tyrode's buffer (α,β-Met-ATP: from Tocris (cat. no 3209), was dissolved at 100 mM in water and stored in aliquots at −20° C.) was performed and the signal of the emitted luminescence was recorded by FLEXSTATION III (Molecular Devices).
The inhibition curves of the tested compounds at cloned P2X3 receptor were determined by nonlinear regression analysis using software Prism 4.0 (Graphpad, San Diego, Calif.). The IC50 values and pseudo-Hill slope coefficients were estimated by the program.

[1] = Table 6, human P2X3 receptor antagonist activity, CHO-K1 cells, α,β-Met-ATP, read-out: h-P2X3 IC50
[2] = Table 8, human P2X3 receptor antagonist activity, CHO-K1 cells, α,β-Met-ATP, read-out: h-P2X3 IC50
[3] = Table 7, human P2X3 receptor antagonist activity, CHO-K1 cells, α,β-Met-ATP, read-out: h-P2X3 IC50

| IC50 [1] [nM] | Structure (SMILES) | other results |
| --- | --- | --- |
| 127 | COc1cc(CN2C(=O)N3CC(c4ccccc4)N=C3c3ncc(N4CCOCC4)cc32)cc(OC)c1 (centres unmarked) [Example 46, 6-(3,5-dimethoxybenzyl)-8-(morpholin-4-yl)-2-phenyl-2,6-dihydroimidazo[1,2-c]pyrido[2,3-e]pyrimidin-5(3H)-one] |  |
|  | COCCNc1cnc2c(c1)c(Cc1cc(OC)cc(OC)c1)nn1c(CC(C)C)nnc21 [Example 118, 6-(3,5-dimethoxybenzyl)-n-(2-methoxyethyl)-3-(2-methylpropyl)pyrido[2,3-d][1,2,4]triazolo[4,3-b]pyridazin-8-amine] | IC50 [2]: 1050 nM |
| 793 | COc1cc(CN2C(=O)N3C(=NCC3CC(C)C)c3ncc(N4CCOCC4)cc32)cc(OC)c1 (centres unmarked) [Example 35, 6-(3,5-dimethoxybenzyl)-3-(2-methylpropyl)-8-(morpholin-4-yl)-2,6-dihydroimidazo[1,2-c]pyrido[2,3-e]pyrimidin-5(3H)-one] |  |
| 375 | COc1ccc(CN2C(=O)N3CC(c4ccccc4)N=C3c3ncc(N4CCOCC4)cc32)cc1 (centres unmarked) [Example 28, 6-(4-methoxybenzyl)-8-(morpholin-4-yl)-2-phenyl-2,6-dihydroimidazo[1,2-c]pyrido[2,3-e]pyrimidin-5(3H)-one] |  |
|  | C=C(C)c1nnc2c3ncc(N4CCOCC4)cc3c(Cc3cc(OC)cc(OC)c3)nn12 [Example 120, 6-(3,5-dimethoxybenzyl)-8-(morpholin-4-yl)-3-(prop-1-en-2-yl)pyrido[2,3-d][1,2,4]triazolo[4,3-b]pyridazine] | IC50 [2]: 544 nM |
| 1080 | O=C1N2CC(CC3CCCCC3)N=C2c2ncc(N3CCOCC3)cc2N1Cc1ccc(Cl)cc1 (centres unmarked) [Example 61, 6-(4-chlorobenzyl)-2-(cyclohexylmethyl)-8-(morpholin-4-yl)-2,6-dihydroimidazo[1,2-c]pyrido[2,3-e]pyrimidin-5(3H)-one] |  |
| 98.3 | COc1ccc(CN2C(=O)N3C(=NC(=O)C3C(C)(C)C)c3ncc(N4CCOCC4)cc32)cc1 (centres unmarked) [Example 69, 3-tert-butyl-6-(4-methoxybenzyl)-8-(morpholin-4-yl)imidazo[1,2-c]pyrido[2,3-e]pyrimidine-2,5(3H,6H)-dione] |  |
|  | CC(C)NC(=O)Cc1nnc2c3ncc(N4CCOCC4)cc3n(Cc3ccc(Cl)cc3)c(=O)n12 [Example 103, 2-[6-(4-chlorobenzyl)-8-(morpholin-4-y1)-5-oxo-5,6-dihydropyrido[2,3-e][1,2,4]triazolo[4,3-c]pyrimidin-3-yl]-n-(propan-2-yl)acetamide] | IC50 [3]: 811 nM |
|  | Cc1ncccc1Cc1nnc2c3ncc(N4CCOCC4)cc3n(Cc3ccc(Cl)cc3)c(=O)n12 [Example 106, 6-(4-chlorobenzyl)-3-[(2-methylpyridin-3-yl)methyl]-8-(morpholin-4-yl)pyrido[2,3-e][1,2,4]triazolo[4,3-c]pyrimidin-5(6H)-one] | IC50 [3]: 40.6 nM |
| 2280 | COCCC1CN=C2c3ncc(N4CCOCC4)cc3N(Cc3ccc(OC)cc3)C(=O)N21 (centres unmarked) [Example 66, 6-(4-methoxybenzyl)-3-(2-methoxyethyl)-8-(morpholin-4-yl)-2,6-dihydroimidazo[1,2-c]pyrido[2,3-e]pyrimidin-5(3H)-one] |  |
| 368 | COc1ccc(CN2C(=O)N3C(=NCC3c3ccccc3)c3ncc(N4CCOCC4)cc32)cc1 (centres unmarked) [Example 29, 6-(4-methoxybenzyl)-8-(morpholin-4-yl)-3-phenyl-2,6-dihydroimidazo[1,2-c]pyrido[2,3-e]pyrimidin-5(3H)-one] |  |
|  | Cc1ccc(Cn2c(=O)n3cc(CC(C)C)nc3c3ncccc32)cc1 [Example 72, 6-(4-methylbenzyl)-2-(2-methylpropyl)imidazo[1,2-c]pyrido[2,3-e]pyrimidin-5(6H)-one] | IC50 [3]: 1390 nM |
| 109 | CC(C)CC1C(=O)N=C2c3ncc(N4CCOCC4)cc3N(Cc3ccc(Cl)cc3)C(=O)N21 (centres unmarked) [Example 64, 6-(4-chlorobenzyl)-3-(2-methylpropyl)-8-(morpholin-4-yl)imidazo[1,2-c]pyrido[2,3-e]pyrimidine-2,5(3H,6H)-dione] |  |
|  | CC1(c2nnc3c4ncc(N5CCOCC5)cc4n(Cc4ccc(Cl)cc4)c(=O)n23)CC1 [Example 102, 6-(4-chlorobenzyl)-3-(1-methylcyclopropyl)-8-(morpholin-4-yl)pyrido[2,3-e][1,2,4]triazolo[4,3-c]pyrimidin-5(6H)-one] | IC50 (running text b1263, read-out: inhibition (human P2X3 receptor)): 25.5 nM |
| 1190 | COc1cc(CN2C(=O)N3C(=NCC3C)c3ncc(N4CCOCC4)cc32)cc(OC)c1 (centres unmarked) [Example 2] |  |
|  | CC(C)(C)c1nnc2c3ncc(N4CCC(N)CC4)cc3c(Cc3ccc(Cl)cc3)nn12 [Example 139, 1-[5-tert-butyl-8-(4-chlorobenzyl)-3,4,6,7,13-pentazatricyclo[7.4.0.02,6]trideca-1(9),2,4,7,10,12-hexaen-11-yl]piperidin-4-amine] | IC50 [2]: 379 nM |
| 1160 | COc1cc(CN2C(=O)N3CC(C)N=C3c3ncc(N4CCOCC4)cc32)cc(OC)c1 (centres unmarked) [Example 3] |  |
|  | COc1ccc(Cn2c(=O)n3c(COC4CCOCC4)nnc3c3ncc(N4CCOCC4)cc32)cc1 [Example 98, 6-(4-methoxybenzyl)-8-(morpholin-4-yl)-3-[(tetrahydro-2H-pyran-4-yloxy)methyl]pyrido[2,3-e][1,2,4]triazolo[4,3-c]pyrimidin-5(6H)-one] | IC50 [3]: 897 nM |
| 504 | CCC1CN=C2c3ncc(N4CCOCC4)cc3N(Cc3cc(OC)cc(OC)c3)C(=O)N21 (centres unmarked) [Example 6, 6-(3,5-dimethoxybenzyl)-3-ethyl-8-(morpholin-4-yl)-2,6-dihydroimidazo[1,2-c]pyrido[2,3-e]pyrimidin-5(3H)-one] |  |
| 5220 | COc1ccc(CN2C(=O)N3C(=NCC3C(C)C)c3ncc(N4CCOCC4)cc32)cc1 (centres unmarked) [Example 1, 6-(4-methoxybenzyl)-8-(morpholin-4-yl)-3-(propan-2-yl)-2,6-dihydroimidazo[1,2-c]pyrido[2,3-e]pyrimidin-5(3H)-one] |  |
|  | COc1cc(CN2C(=O)N3CC(C)CN=C3c3ncc(N4CCOCC4)cc32)cc(OC)c1 (centres unmarked) [Example 145, 5-(3,5-dimethoxybenzyl)-9-methyl-3-(morpholin-4-yl)-5,8,9,10-tetrahydro-6H-pyrido[2,3-e]pyrimido[1,2-c]pyrimidin-6-one] | IC50 (Table 9, human P2X3 receptor antagonist activity, CHO-K1 cells, α,β-Met-ATP, read-out: h-P2X3 IC50): 1780 nM |
|  | COc1cc(Cn2c(=O)n3cc(CC(C)C)nc3c3ncc(N4CCN(C(=O)CO)CC4)cc32)cc(OC)c1 [Example 80, 6-(3,5-dimethoxybenzyl)-8-[4-(hydroxyacetyl)piperazin-1-y1]-2-(2-methylpropyl)imidazo[1,2-c]pyrido[2,3-e]pyrimidin-5(6H)-one] | IC50 [3]: 1530 nM |
| 1700 | O=C(C1CN2C(=O)N(Cc3ccc(Cl)cc3)c3cc(N4CCOCC4)cnc3C2=N1)N1CCOCC1 (centres unmarked) [Example 54, 6-(4-chlorobenzyl)-8-(morpholin-4-yl)-2-(morpholin-4-ylcarbonyl)-2,6-dihydroimidazo[1,2-c]pyrido[2,3-e]pyrimidin-5(3H)-one] |  |
| 872 | COc1cc(CN2C(=O)N3CC(C(C)C)N=C3c3ncc(NC4CCOCC4)cc32)cc(OC)c1 (centres unmarked) [Example 49, 6-(3,5-dimethoxybenzyl)-2-(propan-2-yl)-8-(tetrahydro-2H-pyran-4-ylamino)-2,6-dihydroimidazo[1,2-c]pyrido[2,3-e]pyrimidin-5(3H)-one] |  |
| 345 | COc1ccc(CN2C(=O)N3CC(CC(F)(F)F)N=C3c3ncc(N4CCOCC4)cc32)cc1 (centres unmarked) [Example 56, 6-(4-methoxybenzyl)-8-(morpholin-4-y1)-2-(2,2,2-trifluoroethyl)-2,6-dihydroimidazo[1,2-c]pyrido[2,3-e]pyrimidin-5(3H)-one] |  |
|  | COc1cc(Cn2c(=O)n3c(C)c(C)nc3c3ncc(N4CCOCC4)cc32)cc(OC)c1 [Example 82, 6-(3,5-dimethoxybenzyl)-2,3-dimethyl-8-(morpholin-4-yl)imidazo[1,2-c]pyrido[2,3-e]pyrimidin-5(6H)-one] | IC50 [3]: 332 nM |
